Test results from patent US12458021B2, “Microbiocidal derivatives” (SYNGENTA CROP PROTECTION AG, priority 2019, dated 2025).

Key:
[1] = system: Botryotinia fuckeliana (Botrytis cinerea); experiment: Botryotinia fuckeliana (Botrytis cinerea) / liquid culture (gray mould); assay type: cell-based; conditions: Vogels broth, 24° C., 3-4 days after application, read-out: control of Botryotinia fuckeliana (inhibition of growth, photometric)
Outline: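 Botrytis cinerea conidia in Vogels broth were added to compound supplied as DMSO solution. Plates were incubated at 24 °C, and growth inhibition was read photometrically 3-4 days after application.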

[2] = system: Puccinia recondita f. sp. tritici; experiment: Puccinia recondita f. sp. tritici / wheat / leaf disc preventative (brown rust); assay type: in vivo; conditions: foliar, wheat leaf segments cv. Kanzler, inoculated 1 day after application, assessed 7-9 days after application, read-out: control of Puccinia recondita f. sp. tritici, preventative (percent disease control compared to untreated)
Outline: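 Wheat leaf segments (cv. Kanzler) on agar were sprayed with formulated compound, then inoculated with spores 1 day later. Segments were incubated at 19 °C, 75% rh with 12 h light/dark. Percent disease control versus untreated was scored 7–9 days after application.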

[3] = system: Blumeria graminis f. sp. tritici (Erysiphe graminis f. sp. tritici); experiment: Blumeria graminis f. sp. tritici / wheat / leaf disc preventative (powdery mildew on wheat); assay type: in vivo; conditions: foliar, wheat leaf segments cv. Kanzler, inoculated 1 day after application, assessed 6-8 days after application, read-out: control of Blumeria graminis f. sp. tritici (percent disease control compared to untreated)
From the text: Example B4: Blumeria graminis f. sp. tritici (Erysiphe graminis f. sp. tritici)/Wheat/Leaf Disc Preventative (Powdery Mildew on Wheat) Wheat leaf segments cv. Kanzler are placed on agar in a multiwell plate (24-well format) and sprayed with the formulated test compound diluted in water. The leaf disks are inoculated by shaking powdery mildew infected plants above the test plates 1 day after application. […] […]-192.

[4] = system: Phaeosphaeria nodorum (Septoria nodorum); experiment: Phaeosphaeria nodorum (Septoria nodorum) / wheat / leaf disc preventative (glume blotch); assay type: in vivo; conditions: Parastagonospora nodorum, foliar, wheat leaf segments cv. Kanzler, inoculated 2 days after application, assessed 5-7 days after application, read-out: control of Phaeosphaeria nodorum (percent disease control compared to untreated)
Outline: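 Wheat cv. Kanzler leaf discs on agar were sprayed with formulated compound diluted in water and inoculated with spores 2 days later. Discs were kept at 20° C, 75% rh, 12 h light/dark; percent disease control versus untreated was scored 5-7 days after application.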

Alternaria solani = Alternaria solani / tomato / leaf disc (early blight); assay type: in vivo; conditions: foliar, tomato leaf disks cv. Baby, inoculated 2 days after application, assessed 5-7 days after application, read-out: control of Alternaria solani (percent disease control compared to untreated)
Experimental: Example B1: Alternaria solani/Tomato/Leaf Disc (Early Blight) Tomato leaf disks cv. Baby are placed on agar in multiwell plates (24-well format) and sprayed with the formulated test compound diluted in water. The leaf disks are inoculated with a spore suspension of the fungus 2 days after application. The inoculated leaf disks are incubated at 23° C./21° C. […] […]-185.

Pyrenophora teres = Pyrenophora teres / barley / leaf disc preventative (net blotch); assay type: in vivo; conditions: foliar, barley leaf segments cv. Hasso, inoculated 2 days after application, assessed 5-7 days after application, read-out: control of Pyrenophora teres (disease control compared to untreated)
Outline: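 Barley cv. Hasso leaf discs on agar were sprayed with diluted formulated compound, then inoculated with spore suspension 2 days later. Incubation at 20 °C, 65% rh, 12 h light/dark; disease control versus untreated assessed 5-7 days after application.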

[5] = system: Mycosphaerella graminicola (Septoria tritici); experiment: Mycosphaerella graminicola (Septoria tritici) / liquid culture (Septoria blotch); assay type: cell-based; conditions: Zymoseptoria tritici, PDB potato dextrose broth, 24° C., 4-5 days after application, read-out: control of Mycosphaerella graminicola (inhibition of growth, photometric)
Outline: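 Conidia from cryogenic storage were mixed into potato dextrose broth and added to test compound in DMSO. Plates were incubated at 24° C, and growth inhibition was read photometrically 4-5 days after application.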

Fusarium culmorum = experiment: microbe, parasite or virus in culture; assay type: cell-based; conditions: read-out: control of Fusarium culmorum (inhibition of growth, photometric)
[6] = system: Magnaporthe grisea (Pyricularia oryzae); experiment: whole plant or invertebrate; assay type: in vivo; conditions: foliar, read-out: control of Magnaporthe grisea (percent disease control compared to untreated)
[7] = system: Glomerella lagenarium (Colletotrichum lagenarium); experiment: Glomerella lagenarium (Colletotrichum lagenarium) / liquid culture (anthracnose); assay type: cell-based; conditions: Colletotrichum orbiculare, PDB potato dextrose broth, 24° C., 3-4 days after application, read-out: control of Glomerella lagenarium (inhibition of growth, photometric)
Outline: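 Conidia from cryogenic storage suspended in potato dextrose broth and added to DMSO compound solution in plates. Incubated at 24° C; growth inhibition read photometrically 3-4 days after application.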

[8] = system: Mycosphaerella arachidis (Cercospora arachidicola); experiment: Mycosphaerella arachidis (Cercospora arachidicola) / liquid culture (early leaf spot); assay type: cell-based; conditions: PDB potato dextrose broth, 24° C., 4-5 days after application, read-out: control of Mycosphaerella arachidis (inhibition of growth, photometric)
Outline: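 Conidia from cryogenic storage suspended in potato dextrose broth and added to compound in DMSO. Incubation at 24° C; growth inhibition read photometrically 4-5 days after application.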

[9] = system: Monographella nivalis (Microdochium nivale); experiment: Monographella nivalis (Microdochium nivale) / liquid culture (foot rot cereals); assay type: cell-based; conditions: PDB potato dextrose broth, 24° C., 4-5 days after application, read-out: control of Monographella nivalis (inhibition of growth, photometric)
Outline: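 Cryostored M. nivalis conidia mixed into potato dextrose broth and added to 96-well plates holding test compound in DMSO. Incubated at 24° C; growth inhibition read photometrically 4-5 days after application.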

[10] = system: Puccinia recondita f. sp. tritici; experiment: Puccinia recondita f. sp. tritici / wheat / leaf disc curative (brown rust); assay type: in vivo; conditions: foliar, wheat leaf segments cv. Kanzler, compound applied 1 day after inoculation, assessed 6-8 days after application, read-out: control of Puccinia recondita f. sp. tritici, curative (percent disease control compared to untreated)
Experimental: Example B10: Puccinia recondita f. sp. tritici/Wheat/Leaf Disc Curative (Brown Rust) Wheat leaf segments cv. Kanzler are placed on agar in multiwell plates (24-well format). The leaf segments are inoculated with a spore suspension of the fungus. Plates are stored in darkness at 19° C. and 75% rh. The formulated test compound diluted in water is applied 1 day after inoculation. […] […]-185.

Sclerotinia sclerotiorum = Sclerotinia sclerotiorum / liquid culture (cottony rot); assay type: cell-based; conditions: PDB potato dextrose broth, mycelia fragments, 24° C., 3-4 days after application, read-out: control of Sclerotinia sclerotiorum (inhibition of growth, photometric)
Outline: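 Mycelial fragments of a fresh liquid culture in potato dextrose broth were added to compound dispensed from DMSO solution. Plates were incubated at 24° C. Growth inhibition was measured photometrically 3–4 days after application.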

COc1ccc(Nc2cc(F)cc(F)c2)nc1C(=O)NC1CCC1(C)C (stereo not shown) [Compound P-7, 6-(3,5-difluoroanilino)-N-(2,2-dimethylcyclobutyl)-3-methoxy-pyridine-2-carboxamide]
≥ 80%: inhibition at 20 ppm [1] | pest or weed control at 200 ppm [2] | pest or weed control at 200 ppm [3] | pest or weed control at 200 ppm [4] | pest or weed control at 200 ppm (Alternaria solani) | pest or weed control at 200 ppm (Pyrenophora teres) | inhibition at 20 ppm [5] | inhibition at 20 ppm (Fusarium culmorum) | pest or weed control at 200 ppm [6] | inhibition at 20 ppm [7] | inhibition at 20 ppm [8] | inhibition at 20 ppm [9]

COc1ccc(Nc2cc(F)cc(F)c2)nc1C(=O)NC1(C)CCCC1 [Compound P-107, 6-(3,5-difluoroanilino)-3-methoxy-N-(1-methylcyclopentyl)pyridine-2-carboxamide]
≥ 80%: pest or weed control at 200 ppm [10] | pest or weed control at 200 ppm [2] | inhibition at 20 ppm (Sclerotinia sclerotiorum) | pest or weed control at 200 ppm [3] | pest or weed control at 200 ppm [4] | pest or weed control at 200 ppm (Alternaria solani) | pest or weed control at 200 ppm (Pyrenophora teres) | inhibition at 20 ppm [5] | inhibition at 20 ppm (Fusarium culmorum) | pest or weed control at 200 ppm [6] | inhibition at 20 ppm [7] | inhibition at 20 ppm [8] | inhibition at 20 ppm [9]

COc1ccc(Nc2cc(F)cc(F)c2)nc1C(=O)NC1(C)CCCCC1 [Compound P-108, 6-(3,5-difluoroanilino)-3-methoxy-N-(1-methylcyclohexyl)pyridine-2-carboxamide]
≥ 80%: pest or weed control at 200 ppm [2] | inhibition at 20 ppm (Sclerotinia sclerotiorum) | pest or weed control at 200 ppm [3] | pest or weed control at 200 ppm (Pyrenophora teres) | inhibition at 20 ppm [5] | inhibition at 20 ppm (Fusarium culmorum) | pest or weed control at 200 ppm [6] | inhibition at 20 ppm [7] | inhibition at 20 ppm [8] | inhibition at 20 ppm [9]

CCC1(NC(=O)c2nc(Nc3cc(F)cc(F)c3)ccc2OC)CCC1 [Compound P-178, 6-(3,5-difluoroanilino)-N-(1-ethylcyclobutyl)-3-methoxy-pyridine-2-carboxamide]
≥ 80%: pest or weed control at 200 ppm [10] | inhibition at 20 ppm [1] | pest or weed control at 200 ppm [2] | pest or weed control at 200 ppm [3] | pest or weed control at 200 ppm [4] | pest or weed control at 200 ppm (Alternaria solani) | pest or weed control at 200 ppm (Pyrenophora teres) | inhibition at 20 ppm [5] | inhibition at 20 ppm (Fusarium culmorum) | inhibition at 20 ppm [7] | inhibition at 20 ppm [8] | inhibition at 20 ppm [9]

COc1ccc(Nc2cc(F)cc(F)c2)nc1C(=O)NC1(C(C)C)CCC1 [Compound P-179, 6-(3,5-difluoroanilino)-N-(1-isopropylcyclobutyl)-3-methoxy-pyridine-2-carboxamide]
≥ 80%: inhibition at 20 ppm [1] | pest or weed control at 200 ppm [2] | pest or weed control at 200 ppm [3] | pest or weed control at 200 ppm [4] | pest or weed control at 200 ppm (Alternaria solani) | pest or weed control at 200 ppm (Pyrenophora teres) | inhibition at 20 ppm [5] | inhibition at 20 ppm (Fusarium culmorum) | inhibition at 20 ppm [7] | inhibition at 20 ppm [8] | inhibition at 20 ppm [9]
